# What was measured:
# [1] = biological target: T1, Endothelin receptor type B (Homo sapiens) (UniProt P24530); assay: Inhibition of [125I]ET1 binding to CHO cells expressing human Endothelin B receptor at a concentration of 1 uM; type: cell-based
# T1 sequence (whole entry): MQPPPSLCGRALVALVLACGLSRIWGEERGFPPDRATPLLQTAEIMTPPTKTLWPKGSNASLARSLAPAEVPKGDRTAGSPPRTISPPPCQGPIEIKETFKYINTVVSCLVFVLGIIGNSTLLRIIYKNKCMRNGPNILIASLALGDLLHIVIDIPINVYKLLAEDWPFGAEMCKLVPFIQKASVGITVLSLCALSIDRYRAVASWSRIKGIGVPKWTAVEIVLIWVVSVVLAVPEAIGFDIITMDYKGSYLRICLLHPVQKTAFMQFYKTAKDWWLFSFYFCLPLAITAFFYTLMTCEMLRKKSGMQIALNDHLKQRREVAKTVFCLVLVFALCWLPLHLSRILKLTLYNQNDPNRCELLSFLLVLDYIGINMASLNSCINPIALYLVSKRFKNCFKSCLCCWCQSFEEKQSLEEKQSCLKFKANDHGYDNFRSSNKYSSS
# Endothelin-1 receptor [2] = biological target: T2, Endothelin-1 receptor (Homo sapiens, UniProt P25101); assay: In vitro inhibition of [125I]ET1 binding to CHO cells expressing recombinant human Endothelin A receptor; type: cell-based
# T2 sequence (P25101 whole entry): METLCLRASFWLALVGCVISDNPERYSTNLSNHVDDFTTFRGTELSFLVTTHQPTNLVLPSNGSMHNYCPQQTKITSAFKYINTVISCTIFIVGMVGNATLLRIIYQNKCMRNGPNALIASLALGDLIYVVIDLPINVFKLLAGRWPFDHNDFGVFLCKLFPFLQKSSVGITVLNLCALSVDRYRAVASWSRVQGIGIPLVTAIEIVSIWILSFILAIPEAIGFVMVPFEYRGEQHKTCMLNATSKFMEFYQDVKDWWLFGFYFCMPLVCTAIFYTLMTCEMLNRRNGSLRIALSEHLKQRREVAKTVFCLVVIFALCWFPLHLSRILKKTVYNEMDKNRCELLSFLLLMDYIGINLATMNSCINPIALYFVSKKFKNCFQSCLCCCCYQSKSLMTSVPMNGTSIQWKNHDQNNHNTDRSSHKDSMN
# Rattus norvegicus = species on record: Rattus norvegicus; assay: Tested for antagonising activity against ET-1 induced contraction of rat aorta; type: functional
# [3] = biological target: T3, Endothelin receptor type B (Homo sapiens, UniProt P24530); assay: Inhibition of [125I]-ET-1 binding to CHO cells expressing human Endothelin B receptor […]; type: cell-based
# T3 sequence (P24530 whole entry): T1 sequence (whole entry)
# Endothelin-1 receptor [4] = biological target: T2, Endothelin-1 receptor; assay: Tested for in vitro inhibition of [125I]ET1 binding to CHO cells expressing human Endothelin A receptor; type: cell-based
SMILES,inhibition [1],IC50 (Endothelin-1 receptor [2]),Ki [3],Ki (Endothelin-1 receptor [4]),pKB (Rattus norvegicus)
CCOc1ccc2c(c1)[C@@H](c1ccc(OC)cc1O)N(CC(=O)O)[C@@H]2c1ccc2c(c1)OCO2,4%,77 nM,,,
CCOc1ccc2c(c1)[C@H](c1ccc(OC)cc1)N(CC(=O)O)[C@@H]2c1ccc2c(c1)OCO2,23%,95 nM,,,
CCOc1ccc2c(c1)[C@@H](c1ccc(OC)cc1OCc1nn[nH]n1)N(CC(=O)O)[C@@H]2c1ccc2c(c1)OCO2,0%,,,,
CCOc1ccc2c(c1)[C@@H](c1cccc(OC)c1OCC(=O)O)N(CC(=O)O)[C@@H]2c1ccc2c(c1)OCO2,12%,85 nM,,,
CCOc1ccc2c(c1)[C@@H](c1ccc(OC)cc1OCc1nnn[nH]1)N(CC(=O)O)[C@@H]2c1ccc2c(c1)OCO2,,29 nM,,,
CCOc1ccc2c(c1)[C@H](c1ccc(OC)cc1OCc1nnn[nH]1)N(CC(=O)O)[C@@H]2c1ccc2c(c1)OCO2,,> 1000 nM,,,
CCOc1ccc2c(c1)[C@H](c1ccc(OC)cc1O)N(CC(=O)O)[C@@H]2c1ccc2c(c1)OCO2,13%,58 nM,,,
CCOc1ccc2c(c1)[C@@H](c1cc(OC)c(OC)c(OC)c1)N(CC(=O)O)[C@@H]2c1ccc2c(c1)OCO2,17%,66 nM,,,
CCCOc1ccc2c(c1)[C@@H](c1ccc(OC)cc1)N(CC(=O)O)[C@@H]2c1ccc(OC)cc1OCC(=O)O,0%,> 10000 nM,,,
CCOc1ccc2c(c1)[C@H](c1ccc(OC)c(OC)c1OCC(=O)O)N(CC(=O)O)[C@@H]2c1ccc2c(c1)OCO2,27%,96 nM,,,
CCOc1ccc2c(c1)[C@@H](c1ccc(OC)cc1OCC(=O)O)N(CC(=O)O)[C@@H]2c1ccc2c(c1)OCO2,15%,5.4 nM,,,
CCOc1ccc2c(c1)[C@@H](c1cc(OC)c(OC)c(OC)c1OCC(=O)O)N(CC(=O)O)[C@@H]2c1ccc2c(c1)OCO2,1%,310 nM,,,
CCOc1ccc2c(c1)[C@H](c1ccc(OC)cc1OCC(C)(C)C(=O)O)N(CC(=O)O)[C@@H]2c1ccc2c(c1)OCO2,34%,14 nM,,,
CCOc1ccc2c(c1)[C@H](c1ccc(OC)cc1OCC(=O)O)N(CC(=O)O)[C@@H]2c1ccc2c(c1)OCO2,52%,4.1 nM,,,
CCCOc1ccc2c(c1)[C@H](c1ccc(OC)cc1)N(CC(=O)O)[C@@H]2c1ccc(OC)cc1OCC(=O)O,0%,> 10000 nM,,,

# More lines, main results first:
inhibition [1],IC50 (Endothelin-1 receptor [2]),Ki [3],Ki (Endothelin-1 receptor [4]),SMILES,pKB (Rattus norvegicus)
0%,> 10000 nM,,,CCOc1ccc2c(c1)[C@H](c1ccc(OC)cc1OCC(=O)O)N(C(=O)C(=O)O)[C@@H]2c1ccc2c(c1)OCO2,
0%,> 10000 nM,,,CCOc1ccc2c(c1)[C@H](c1cc(OC)c(OC)c(OC)c1)N(c1nn[nH]n1)[C@@H]2c1ccc2c(c1)OCO2,
31%,110 nM,,,CCOc1ccc2c(c1)[C@H](c1cccc(OC)c1OCC(=O)O)N(CC(=O)O)[C@@H]2c1ccc2c(c1)OCO2,
2%,6.1 nM,,,CCOc1ccc2c(c1)[C@@H](c1ccc(OC)c(OC)c1OCC(=O)O)N(CC(=O)O)[C@@H]2c1ccc2c(c1)OCO2,
1%,68 nM,,,CCOc1ccc2c(c1)[C@@H](c1ccc(OC)cc1OCC(C)(C)C(=O)O)N(CC(=O)O)[C@@H]2c1ccc2c(c1)OCO2,
9%,96 nM,,,CCOc1ccc2c(c1)[C@@H](c1ccc(OC)cc1)N(CC(=O)O)[C@@H]2c1ccc2c(c1)OCO2,
11%,12 nM,,,CCOc1ccc2c(c1)[C@@H](c1ccc(OC)cc1OCC(=O)O)N(C(=O)C(=O)O)[C@@H]2c1ccc2c(c1)OCO2,7.7
37%,,,,CCOc1ccc2c(c1)[C@H](c1ccc(OC)cc1OCc1nn[nH]n1)N(CC(=O)O)[C@@H]2c1ccc2c(c1)OCO2,
,,14.7 nM,0.43 nM,CCCOc1ccc2c(c1)[C@H](c1ccc(OC)cc1OCC(=O)O)[C@@H](C(=O)O)[C@@H]2c1ccc2c(c1)OCO2,
15%,,,,CCOc1ccc2c(c1)[C@H](c1cc(OC)c(OC)c(OC)c1)N(CC(=O)O)[C@@H]2c1ccc2c(c1)OCO2,
10%,330 nM,,,CCOc1ccc2c(c1)[C@H](c1cc(OC)c(OC)c(OC)c1OCC(=O)O)N(CC(=O)O)[C@@H]2c1ccc2c(c1)OCO2,
6%,> 10000 nM,,,CCOc1ccc2c(c1)[C@@H](c1ccc(OC)cc1OCCO)N(CC(=O)O)[C@@H]2c1ccc2c(c1)OCO2,
17%,31 nM,,,CCOc1ccc2c(c1)[C@@H](c1ccc(OC)cc1OCC(=O)O)N(c1nn[nH]n1)[C@@H]2c1ccc2c(c1)OCO2,
37%,22 nM,,,CCOc1ccc2c(c1)[C@@H](c1ccc(OC)cc1OCCCC(=O)O)N(CC(=O)O)[C@@H]2c1ccc2c(c1)OCO2,
,120 nM,,,CCCOc1ccc2c(c1)[C@@H](c1ccc(OC)cc1)N(CC(=O)O)[C@@H]2c1ccc2c(c1)OCO2,
1%,3300 nM,,,COc1ccc([C@@H]2c3cc(OC)ccc3[C@@H](c3ccc4c(c3)OCO4)N2CC(=O)O)cc1,
